# Patent publication US20220304349A1, “Steviol Glycoside Compositions for Oral Ingestion or Use” (CARGILL, Incorporated, priority 2016, published 2022)
# Columns and labels:
# [1] = Instantaneous solubility: vigorous mixing with deionized water for 10 minutes at room temperature; format: physicochemical; details: for concentration of the rebaudioside in the instantaneously soluble 0.37% solution of the fermentation composition: room temperature water; for instantaneous solubility: water, room temperature
# Protocol: The composition can optionally be expressed in terms of the concentration of one or more steviol glycoside(s). […] Clear solutions without precipitates are considered soluble. Unless indicated otherwise herein, the term “solubility” refers to “equilibrium solubility.”
# Instantaneous solubility is determined by mixing steviol glycoisde with deionized water vigorously for 10 minutes at room temperature. […] Clear solutions without precipitates are considered soluble.
# [2] = Equilibrium solubility: heating in deionized water at 80° C. for 15 minutes, cooling to room temperature, observation up to 4 days; format: physicochemical; set-up: key to equilibrium solubility at stated concentration: Clear solutions without precipitates are considered soluble
# Text: The composition can optionally be expressed in terms of the concentration of one or more steviol glycoside(s). […] Clear solutions without precipitates are considered soluble. Unless indicated otherwise herein, the term “solubility” refers to “equilibrium solubility.” […]
# UGT 76G1 and EUGT11 = target: T1, UGT 76G1 and EUGT11 (Stevia rebaudiana, UniProt Q6VAB4); assay: Bioconversion of steviol glycosides with crude UGT enzyme preparations expressed in E. coli, LC-UV analysis; format: biochemical; details: UGT clone 76G1; 2 mM substrate fed, overnight at 30° C.
# T1 construct: made in house; host or cells: E. coli XjB-autolysis BL21(DE3), pET30 vector, crude lysate
# T1 sequence (Q6VAB4 1-458): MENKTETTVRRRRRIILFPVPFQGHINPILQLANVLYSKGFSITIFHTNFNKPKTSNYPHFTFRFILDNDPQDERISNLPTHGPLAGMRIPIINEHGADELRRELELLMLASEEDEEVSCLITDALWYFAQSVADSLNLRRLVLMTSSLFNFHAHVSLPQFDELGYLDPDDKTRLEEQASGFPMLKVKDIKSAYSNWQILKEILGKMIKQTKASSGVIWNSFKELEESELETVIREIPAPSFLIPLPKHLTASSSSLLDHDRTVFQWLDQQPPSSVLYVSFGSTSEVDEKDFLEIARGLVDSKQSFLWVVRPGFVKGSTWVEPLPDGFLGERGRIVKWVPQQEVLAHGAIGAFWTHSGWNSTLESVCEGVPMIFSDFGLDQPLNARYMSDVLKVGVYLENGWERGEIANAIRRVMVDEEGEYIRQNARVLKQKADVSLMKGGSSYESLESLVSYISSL
# Protocol: The wildtype genes for UGTs EUGT11 and 76G1 are cloned individually into E. coli XjB-autolysis BL21(DE3) cells using the pET30 vector system from Novagen (EMD4 Biosciences, Madison, Wis.). All vectors use an IPTG-inducible promoter. Plasmid DNA is transformed into chemically competent cells as described by the vendor.
# For in vitro assays, transformants displaying the desired antibiotic resistance are grown overnight at 30° C. in 2 mL cultures using NZCYM-media and antibiotic. The following day, the cultures are induced to a final concentration of 0.3 mM IPTG and 3 mM arabinose, and grown for 24 h at 20° C. The cells are then harvested by centrifugation at 4000 rpm for […] and resuspended in 200 μL GT-buffer (RBC Bioscience) and 3 tablets/100 ml of Complete mini, protease inhibitor (Roche), transferred to Eppendorf tubes, vortexed and frozen at −80° C. for 1.5 hour. Cells are thawed on ice, and left at room temperature for 3 minutes. When approximately half-way thawed, 15 μl of 0.14 mg/ml H2O DNase solution+30 μl 0.05M MgCl2 is added to each tube and the samples are incubated for approximately 5 minutes at room temperature. The cells are centrifuged at maximum speed for 5 minutes. One-hundred μL of supernatant (lysate) is transferred to fresh microfuge tubes, and 100 μL of glycerol is added. […]
# [3] = in vivo; cited from earlier work
# [4] = cited from earlier work
compound,measurement,setting,value
"C=C1C[C@@]23CC[C@H]4[C@@](C)(CCC[C@@]4(C)C(=O)O[C@@H]4O[C@H](CO)[C@@H](O)[C@H](O)[C@H]4O[C@@H]4O[C@H](CO)[C@@H](O)[C@H](O)[C@H]4O)[C@@H]2CC[C@]1(O[C@@H]1O[C@H](CO)[C@@H](O)[C@H](O[C@@H]2O[C@H](CO)[C@@H](O)[C@H](O)[C@H]2O)[C@H]1O[C@@H]1O[C@H](CO)[C@@H](O)[C@H](O)[C@H]1O)C3 [Reb D, rebaudioside D]",instantaneous solubility at stated concentration,[1]; 0.08%,insoluble
same,instantaneous solubility at stated concentration,[1]; 0.10%,insoluble
same,instantaneous solubility at stated concentration,[1]; 0.15%,insoluble
same,instantaneous solubility at stated concentration,[1]; 0.20%,insoluble
same,improvement (increase) in instantaneous solubility over the pure rebaudioside,[1]; in the presence of compounds SG101-104 (fermentation derived composition),75%
same,concentration of the rebaudioside in the instantaneously soluble 0.37% solution of the fermentation composition,[1],0.14%
same,concentration of the rebaudioside in the instantaneously soluble 0.37% solution of the fermentation composition,[1]; listed as reb D,about 0.14%
same,instantaneous solubility,[1],< 0.08%
same,instantaneous solubility,[1]; listed as rebaudioside D,less than 0.08%
same,equilibrium solubility at stated concentration,[2]; 0.08%,soluble
same,equilibrium solubility at stated concentration,[2]; 0.10%,insoluble
same,equilibrium solubility at stated concentration,[2]; 0.15%,insoluble
same,equilibrium solubility at stated concentration,[2]; 0.20%,insoluble
same,equilibrium solubility,"[2]; after 80° C. for 15 minutes, at room temperature, up to 4 days",0.08%
same,Products,UGT 76G1 and EUGT11,"Rebaudioside M, various"
same,sweetness characteristics,[3],slow onset of sweetness and was very clean
same,times sweeter than sucrose (sugar),[3],200-220 times
same,amount that can be solubilized in water,[4]; 23° C.,300 to 450 ppm
same,aqueous solubility in words,[4],low solubility in water at room temperature
